Experimental data from ChEMBL document CHEMBL3046898, “Synthesis and characterization of flurbiprofen hydrazide derivatives as potential anti-HCV, anticancer and antimicrobial agents” (2013).
Activity calls are given as the source filed them. The calls are words filed in the database; no cut-off is given here.

Tests used:
Micrococcus lylae [1] = assay: Antibacterial activity against Micrococcus lylae at 6.25 to 200 ug/ml after 24 hrs by microwell dilution method; type: functional, organism-based
Pseudomonas aeruginosa [2] = assay: Antibacterial activity against Pseudomonas aeruginosa at 6.25 to 200 ug/ml after 24 hrs by microwell dilution method; type: functional, organism-based
Proteus vulgaris [3] = assay: Antibacterial activity against Proteus vulgaris at 6.25 to 200 ug/ml after 24 hrs by microwell dilution method; type: functional, organism-based
Escherichia coli [4] = assay: Antibacterial activity against Escherichia coli at 6.25 to 200 ug/ml after 24 hrs by microwell dilution method; type: functional, organism-based
Staphylococcus cohnii [5] = assay: Antibacterial activity against Staphylococcus cohnii at 6.25 to 200 ug/ml after 24 hrs by microwell dilution assay; type: functional, organism-based
Staphylococcus aureus [6] = assay: Antibacterial activity against Staphylococcus aureus at 6.25 to 200 ug/ml after 24 hrs by microwell dilution assay; type: functional, organism-based
Micrococcus luteus [7] = assay: Antibacterial activity against Micrococcus luteus at 6.25 to 200 ug/ml after 24 hrs by microwell dilution method; type: functional, organism-based
Aspergillus = assay: Antifungal activity against Aspergillus at 10 mg/ml after 72 hrs by disc diffusion method; type: functional, organism-based
Pichia membranifaciens = assay: Antifungal activity against Pichia membranifaciens at 10 mg/ml after 48 hrs by disc diffusion method; type: functional, organism-based
Kluyveromyces marxianus = assay: Antifungal activity against Kluyveromyces marxianus at 10 mg/ml after 48 hrs by disc diffusion method; type: functional, organism-based
[8] = system: Schwanniomyces occidentalis; assay: Antifungal activity against Schwanniomyces occidentalis at 10 mg/ml after 48 hrs by disc diffusion method; type: functional, organism-based
Nakaseomyces glabratus = assay: Antifungal activity against Candida glabrata at 10 mg/ml after 48 hrs by disc diffusion method; type: functional, organism-based
Candida parapsilosis = assay: Antifungal activity against Candida parapsilosis at 10 mg/ml after 48 hrs by disc diffusion method; type: functional, organism-based
Candida tropicalis = assay: Antifungal activity against Candida tropicalis at 10 mg/ml after 48 hrs by disc diffusion method; type: functional, organism-based
Candida albicans = assay: Antifungal activity against Candida albicans at 10 mg/ml after 48 hrs by disc diffusion method; type: functional, organism-based
Photorhabdus luminescens [9] = assay: Antibacterial activity against Photorhabdus luminescens at 10 mg/ml after 24 hrs by disc diffusion method; type: functional, organism-based
T47D = assay: Cytotoxicity against human T47D assessed as cell growth at 10 uM after 48 hrs by SRB assay; type: functional; conditions: read-out: Activity
Klebsiella aerogenes [10] = assay: Antibacterial activity against Enterobacter aerogenes at 6.25 to 200 ug/ml after 24 hrs by microwell dilution method; type: functional, organism-based
Photorhabdus luminescens [11] = assay: Antibacterial activity against Photorhabdus luminescens at 6.25 to 200 ug/ml after 24 hrs by microwell dilution method; type: functional, organism-based
[12] = system: Acinetobacter radioresistens; assay: Antibacterial activity against Acinetobacter radioresistens at 6.25 to 200 ug/ml after 24 hrs by microwell dilution method; type: functional, organism-based
Salmonella paratyphi [13] = assay: Antibacterial activity against Salmonella paratyphi at 6.25 to 200 ug/ml after 24 hrs by microwell dilution method; type: functional, organism-based; conditions: Salmonella enterica subsp. enterica serovar Paratyphi A
Klebsiella aerogenes [14] = assay: Antibacterial activity against Enterobacter aerogenes at 10 mg/ml after 24 hrs by disc diffusion method; type: functional, organism-based
[15] = system: Acinetobacter radioresistens; assay: Antibacterial activity against Acinetobacter radioresistens at 10 mg/ml after 24 hrs by disc diffusion method; type: functional, organism-based
Salmonella paratyphi [16] = assay: Antibacterial activity against Salmonella paratyphi at 10 mg/ml after 24 hrs by disc diffusion method; type: functional, organism-based; conditions: Salmonella enterica subsp. enterica serovar Paratyphi A
Micrococcus lylae [17] = assay: Antibacterial activity against Micrococcus lylae at 10 mg/ml after 24 hrs by disc diffusion method; type: functional, organism-based
Pseudomonas aeruginosa [18] = assay: Antibacterial activity against Pseudomonas aeruginosa at 10 mg/ml after 24 hrs by disc diffusion method; type: functional, organism-based
Escherichia coli [19] = assay: Antibacterial activity against Escherichia coli at 10 mg/ml after 24 hrs by disc diffusion method; type: functional, organism-based
Proteus vulgaris [20] = assay: Antibacterial activity against Proteus vulgaris at 10 mg/ml after 24 hrs by disc diffusion method; type: functional, organism-based
Micrococcus luteus [21] = assay: Antibacterial activity against Micrococcus luteus at 10 mg/ml after 24 hrs by disc diffusion method; type: functional, organism-based
Staphylococcus aureus [22] = assay: Antibacterial activity against Staphylococcus aureus at 10 mg/ml after 24 hrs by disc diffusion method; type: functional
Staphylococcus cohnii [23] = assay: Antibacterial activity against Staphylococcus cohnii at 10 mg/ml after 24 hrs by disc diffusion method; type: functional
Hepacivirus hominis = assay: Inhibition of HCV N-terminal His-tagged NS5B RNA dependent RNA polymerase expressed in Escherichia coli DH5alpha using poly rA/U12 as primer at 200 uM after 60 mins by liquid scintillation counting

SMILES	Activity (Micrococcus lylae [1])	Activity (Pseudomonas aeruginosa [2])	Activity (Proteus vulgaris [3])	Activity (Escherichia coli [4])	Activity (Staphylococcus cohnii [5])	Activity (Staphylococcus aureus [6])	Activity (Micrococcus luteus [7])	Activity (Aspergillus)	Activity (Pichia membranifaciens)	Activity (Kluyveromyces marxianus)	Activity [8]	Activity (Nakaseomyces glabratus)	Activity (Candida parapsilosis)	Activity (Candida tropicalis)	Activity (Candida albicans)	Activity (Photorhabdus luminescens [9])	Activity (Klebsiella aerogenes [10])	Activity (Photorhabdus luminescens [11])	Activity [12]	Activity (Salmonella paratyphi [13])	further results
CC(C(=O)N/N=C/c1c(F)cccc1F)c1ccc(-c2ccccc2)c(F)c1 (stereo not drawn)	inactive	inactive	inactive	inactive	inactive	inactive	inactive	inactive	inactive	inactive	inactive	inactive	inactive	inactive	inactive	inactive	inactive	inactive	inactive	inactive	growth at 10 µM (T47D): 55.3%; Activity (Klebsiella aerogenes [14]): inactive; Activity [15]: inactive; Activity (Salmonella paratyphi [16]): inactive; Activity (Micrococcus lylae [17]): inactive; Activity (Pseudomonas aeruginosa [18]): inactive; Activity (Escherichia coli [19]): inactive; Activity (Proteus vulgaris [20]): inactive; Activity (Micrococcus luteus [21]): inactive; Activity (Staphylococcus aureus [22]): inactive; Activity (Staphylococcus cohnii [23]): inactive; inhibition (Hepacivirus hominis): 8%
Cc1cc(C)c(/C=N/NC(=O)C(C)c2ccc(-c3ccccc3)c(F)c2)c(C)c1 (stereo not drawn)	inactive	inactive	inactive	inactive	inactive	inactive	inactive	inactive	inactive	inactive	inactive	inactive	inactive	inactive	inactive	inactive	inactive	inactive	inactive	inactive	Activity (Klebsiella aerogenes [14]): inactive; Activity [15]: inactive; Activity (Salmonella paratyphi [16]): inactive; Activity (Micrococcus lylae [17]): inactive; Activity (Pseudomonas aeruginosa [18]): inactive; Activity (Escherichia coli [19]): inactive; Activity (Proteus vulgaris [20]): inactive; Activity (Micrococcus luteus [21]): inactive; Activity (Staphylococcus aureus [22]): inactive; Activity (Staphylococcus cohnii [23]): inactive; inhibition (Hepacivirus hominis): 8%
CC(C(=O)NNC(=S)NC1CCCCC1)c1ccc(-c2ccccc2)c(F)c1 (stereo not drawn)	inactive	inactive	inactive	inactive	inactive	inactive	inactive	inactive	inactive	inactive	inactive	inactive	inactive	inactive	inactive	inactive	inactive	inactive	inactive	inactive	Activity (Klebsiella aerogenes [14]): inactive; Activity [15]: inactive; Activity (Salmonella paratyphi [16]): inactive; Activity (Micrococcus lylae [17]): inactive; Activity (Pseudomonas aeruginosa [18]): inactive; Activity (Escherichia coli [19]): inactive; Activity (Proteus vulgaris [20]): inactive; Activity (Micrococcus luteus [21]): inactive; Activity (Staphylococcus aureus [22]): inactive; Activity (Staphylococcus cohnii [23]): inactive; inhibition (Hepacivirus hominis): 8%
C=CCNC(=S)NNC(=O)C(C)c1ccc(-c2ccccc2)c(F)c1 (stereo not drawn)	inactive	inactive	inactive	inactive	inactive	inactive	inactive	inactive	inactive	inactive	inactive	inactive	inactive	inactive	inactive	inactive	inactive	inactive	inactive	inactive	Activity (Klebsiella aerogenes [14]): inactive; Activity [15]: inactive; Activity (Salmonella paratyphi [16]): inactive; Activity (Micrococcus lylae [17]): inactive; Activity (Pseudomonas aeruginosa [18]): inactive; Activity (Escherichia coli [19]): inactive; Activity (Proteus vulgaris [20]): inactive; Activity (Micrococcus luteus [21]): inactive; Activity (Staphylococcus aureus [22]): inactive; Activity (Staphylococcus cohnii [23]): inactive; inhibition (Hepacivirus hominis): 8%
CC(C(=O)N/N=C/c1ccc([N+](=O)[O-])cc1)c1ccc(-c2ccccc2)c(F)c1 (stereo not drawn)	inactive	inactive	inactive	inactive	inactive	inactive	inactive	inactive	inactive	inactive	inactive	inactive	inactive	inactive	inactive	inactive	inactive	inactive	inactive	inactive	Activity (Klebsiella aerogenes [14]): inactive; Activity [15]: inactive; Activity (Salmonella paratyphi [16]): inactive; Activity (Micrococcus lylae [17]): inactive; Activity (Pseudomonas aeruginosa [18]): inactive; Activity (Escherichia coli [19]): inactive; Activity (Proteus vulgaris [20]): inactive; Activity (Micrococcus luteus [21]): inactive; Activity (Staphylococcus aureus [22]): inactive; Activity (Staphylococcus cohnii [23]): inactive; inhibition (Hepacivirus hominis): 8%
CC(C(=O)N/N=C1\SCC(=O)N1C)c1ccc(-c2ccccc2)c(F)c1 (stereo not drawn)	inactive	inactive	inactive	inactive	inactive	inactive	inactive	inactive	inactive	inactive	inactive	inactive	inactive	inactive	inactive	inactive	inactive	inactive	inactive	inactive	Activity (Klebsiella aerogenes [14]): inactive; Activity [15]: inactive; Activity (Salmonella paratyphi [16]): inactive; Activity (Micrococcus lylae [17]): inactive; Activity (Pseudomonas aeruginosa [18]): inactive; Activity (Escherichia coli [19]): inactive; Activity (Proteus vulgaris [20]): inactive; Activity (Micrococcus luteus [21]): inactive; Activity (Staphylococcus aureus [22]): inactive; Activity (Staphylococcus cohnii [23]): inactive; inhibition (Hepacivirus hominis): 8%
C=CCN1C(=O)CS/C1=N\NC(=O)C(C)c1ccc(-c2ccccc2)c(F)c1 (stereo not drawn)	inactive	inactive	inactive	inactive	inactive	inactive	inactive	inactive	inactive	inactive	inactive	inactive	inactive	inactive	inactive	inactive	inactive	inactive	inactive	inactive	Activity (Klebsiella aerogenes [14]): inactive; Activity [15]: inactive; Activity (Salmonella paratyphi [16]): inactive; Activity (Micrococcus lylae [17]): inactive; Activity (Pseudomonas aeruginosa [18]): inactive; Activity (Escherichia coli [19]): inactive; Activity (Proteus vulgaris [20]): inactive; Activity (Micrococcus luteus [21]): inactive; Activity (Staphylococcus aureus [22]): inactive; Activity (Staphylococcus cohnii [23]): inactive; inhibition (Hepacivirus hominis): 8%
